Measurements: US20240116985A1, “STAPLED PEPTIDES AND METHODS THEREOF” (priority 2020, published 2024)
Starred links: 1 amine or outer side, 2 acyl side, 3 side chain; linkers in the order of their positions; H or OH if unused. Positions of bridges follow the written chain, without caps; N, C: chain ends. Non-standard residues stand in square brackets, D forms with d. Residues, ends and D or L forms follow the SMILES beside them. X3 = O=C([C@]1(CC=[*:3])CCCN1[*:1])[*:2]; Bta = N[C@@H](Cc1csc2ccccc12)C(=O)O; tBuAla = CC(C)(C)C[C@H](N)C(=O)O; 3Thi = N[C@@H](Cc1ccsc1)C(=O)O; R5 = C=CCCC[C@@](C)(N)C(=O)O; S5 = C=CCCC[C@](C)(N)C(=O)O; Aib = CC(C)(N)C(=O)O

Target: T1, full-length beta-Catenin (Uniprot ID P35222) (Homo sapiens, UniProt P35222)
T1 construct: 10 nM full-length beta-Catenin (Uniprot ID P35222)
T1 sequence (P35222 1-781): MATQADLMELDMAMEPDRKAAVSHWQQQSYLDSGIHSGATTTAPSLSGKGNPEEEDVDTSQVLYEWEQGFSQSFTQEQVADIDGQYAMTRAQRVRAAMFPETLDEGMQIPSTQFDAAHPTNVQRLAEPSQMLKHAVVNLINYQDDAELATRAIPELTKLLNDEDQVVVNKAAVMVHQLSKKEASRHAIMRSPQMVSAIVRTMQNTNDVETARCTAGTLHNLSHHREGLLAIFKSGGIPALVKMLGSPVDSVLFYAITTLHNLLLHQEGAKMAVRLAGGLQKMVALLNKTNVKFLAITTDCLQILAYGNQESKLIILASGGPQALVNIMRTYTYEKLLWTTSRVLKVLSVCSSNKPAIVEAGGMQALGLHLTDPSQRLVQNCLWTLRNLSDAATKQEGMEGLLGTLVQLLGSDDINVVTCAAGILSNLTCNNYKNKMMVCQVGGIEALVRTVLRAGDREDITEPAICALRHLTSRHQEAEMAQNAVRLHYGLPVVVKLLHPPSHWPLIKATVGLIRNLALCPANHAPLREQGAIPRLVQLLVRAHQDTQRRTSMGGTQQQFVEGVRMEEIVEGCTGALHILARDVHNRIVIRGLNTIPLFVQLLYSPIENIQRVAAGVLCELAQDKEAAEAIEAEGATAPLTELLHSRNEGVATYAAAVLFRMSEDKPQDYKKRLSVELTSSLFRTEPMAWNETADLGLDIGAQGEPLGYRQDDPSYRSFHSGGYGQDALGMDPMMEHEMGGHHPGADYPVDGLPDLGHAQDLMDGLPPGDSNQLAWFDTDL
Experiment: Fluorescence polarization IC50 (beta-catenin / 5FAM-TCF4 10-53 competition)
Format: binding
Settings: fluorescence polarization; read-out: beta-Catenin FP IC50

| SMILES | IC50 [nM] |
| --- | --- |
| CC(=O)N1CCC[C@]12CC=CCCC[C@@](C)(C(=O)N[C@@H](CC(=O)O)C(=O)N[C@@H](CC(=O)O)C(=O)N[C@@H](C)C(=O)N[C@@H](C)C(=O)N[C@@H](Cc1ccccc1)C(=O)N[C@]1(C)CCCC=CCCC[C@@](C)(C(=O)N[C@@H](C)C(N)=O)NC(=O)[C@H](Cc3csc4ccccc34)NC(=O)[C@H](Cc3ccsc3)NC(=O)[C@H](C)NC1=O)NC(=O)[C@H](CC(C)(C)C)NC(=O)[C@H](CC(=O)O)NC2=O [I-1778, Ac-PL3-Asp-Npg-S5-Asp-Asp-Ala-Ala-Phe-R5-Ala-3Thi-BztA-S5-Ala-NH2] (Ac-[X3]D[tBuAla][S5]DDAAF[R5]A[3Thi][Bta][S5]A-NH2; staple 1-4, 10-14 (inferred)) | 2080 |
| CC(=O)N1CCC[C@]12CC=CCCC[C@@](C)(C(=O)N[C@@H](CC(=O)O)C(=O)N[C@@H](CC(=O)O)C(=O)NC(C)(C)C(=O)N[C@@H](C)C(=O)N[C@@H](Cc1ccccc1)C(=O)N[C@]1(C)CCCC=CCCC[C@@](C)(C(=O)N[C@@H](C)C(N)=O)NC(=O)[C@H](Cc3csc4ccccc34)NC(=O)[C@H](Cc3ccsc3)NC(=O)[C@H](C)NC1=O)NC(=O)[C@H](CC(C)(C)C)NC(=O)[C@H](CC(=O)O)NC2=O [I-1780, Ac-PL3-Asp-Npg-S5-Asp-Asp-Aib-Ala-Phe-R5-Ala-3Thi-BztA-S5-Ala-NH2] (Ac-[X3]D[tBuAla][S5]DD[Aib]AF[R5]A[3Thi][Bta][S5]A-NH2; staple 1-4, 10-14 (inferred)) | 4190 |
| CC(=O)N1CCC[C@]12CC=CCCC[C@@](C)(C(=O)N[C@@H](CC(=O)O)C(=O)N[C@@H](CC(=O)O)C(=O)NC(C)(C)C(=O)N[C@@H](C)C(=O)N[C@@H](Cc1ccccc1)C(=O)N[C@]1(C)CCCC=CCCC[C@@](C)(C(=O)N[C@@H](C)C(N)=O)NC(=O)[C@H](Cc3csc4ccccc34)NC(=O)[C@H](Cc3ccsc3)NC(=O)[C@H](C)NC1=O)NC(=O)[C@H](CC(C)(C)C)NC(=O)[C@H](CC(=O)O)NC2=O [I-1781, Ac-PL3-Asp-Npg-S5-Asp-Asp-Aib-Ala-Phe-R5-Ala-3Thi-BztA-S5-Ala-NH2] (Ac-[X3]D[tBuAla][S5]DD[Aib]AF[R5]A[3Thi][Bta][S5]A-NH2; staple 1-4, 10-14 (inferred)) | 8450 |

Stronger by IC50, values ahead:

| IC50 [nM] | SMILES |
| --- | --- |
| 15 | CC(=O)N1CCC[C@]12CC=CCCCC1(CCCC=CCCCOC(=O)N3CC[C@@](C(=O)N[C@@H](Cc4ccsc4)C(=O)N[C@@H](Cc4csc5ccccc45)C(=O)N[C@@H](CCC(N)=O)C(N)=O)(C3)NC(=O)[C@H](CC(C)C)NC(=O)[C@H](Cc3ccccc3)NC(=O)[C@H](C)NC(=O)[C@H](C)NC(=O)[C@H](CN(CC(=O)O)CC(F)(F)F)NC(=O)[C@H](CC(=O)O)NC1=O)NC(=O)[C@H](CC1CCCCC1)NC(=O)[C@H](CC(=O)O)NC2=O (stereo partly drawn) [I-1775, Ac-PL3-Asp-Cha-B5-Asp-TfeGA-Ala-Ala-Phe-Leu-PyrS2-3Thi-BztA-Gln-NH2] |
| 528 | CC(=O)N1CCC[C@]12CC=CCCCC1(CCCC=CCCCOC(=O)N3CC[C@@](C(=O)N[C@@H](Cc4ccsc4)C(=O)N[C@@H](Cc4csc5ccccc45)C(=O)N[C@@H](CCC(N)=O)C(N)=O)(C3)NC(=O)[C@H](CC(C)C)NC(=O)[C@H](Cc3ccccc3)NC(=O)[C@H](C)NC(=O)[C@H](C)NC(=O)[C@H](Cc3ccc(O)cc3)NC(=O)[C@H](CC(=O)O)NC1=O)NC(=O)[C@H](CC(C)(C)C)NC(=O)[C@H](CC(=O)O)NC2=O (stereo partly drawn) [I-1784, Ac-PL3-Asp-Npg-B5-Asp-Tyr-Ala-Ala-Phe-Leu-PyrS2-3Thi-BztA-Gln-NH2] |
| 31 | CC(=O)N1CCC[C@]12CC=CCCCC1(CCCC=CCCCOC(=O)N3CC[C@@](C(=O)N[C@@H](Cc4ccsc4)C(=O)N[C@@H](Cc4csc5ccccc45)C(=O)N[C@@H](CCC(N)=O)C(N)=O)(C3)NC(=O)[C@H](CC(N)=O)NC(=O)[C@H](Cc3ccccc3)NC(=O)[C@H](C)NC(=O)[C@H](C)NC(=O)[C@H](CCc3ccc(O)cc3)NC(=O)[C@H](CC(=O)O)NC1=O)NC(=O)[C@H](CC(C)(C)C)NC(=O)[C@H](CC(=O)O)NC2=O (stereo partly drawn) [I-1785, Ac-PL3-Asp-Npg-B5-Asp-hTyr-Ala-Ala-Phe-Asn-PyrS2-3Thi-BztA-Gln-NH2] |
